In article PMC2692672 (Journal of molecular biology, 2009) one finds Kd data, which are given here for one molecule.

The target of this experiment is GRP94 (Canis lupus, UniProt P41148, DEL287-327). Nature of the experiment: co-crystal structure. The experiment is classed as binding.

Usually Kd stands for the constant that tells how readily two partners part at equilibrium. High values mean weaker binding, low ones tighter binding. `COC(=O)c1c(O)cc(O)c(Cl)c1CCC(=O)NC1=CC(=O)C(OC)=CC1=O` [Radamide] returned an equilibrium dissociation constant (Kd) of 520 ± 130 nM.
